Measured values taken from patent publication US20100216661A1, “Diagnostic Assay” (priority 2007, published 2010).

Assays:
[1] = tested on: anti-RhD monoclonal antibody T10 (LHM76/55); test: Biopanning of phage-peptide libraries with anti-RhD T10; assay type: binding, Human; settings: phage-peptide libraries; three rounds of panning
Description: (§1) Three different phage libraries from New England Biolabs. (Ph.D. 7 and Ph.D. 12 displaying linear 7- and 12-mer peptides, respectively and Ph.D. C7C displaying 7-mer peptides constrained by a disulphide bridge at their termini) and a linear 15mer library (kindly provided by Prof. George P. Smith, University of Missouri) were used in biopanning experiments with 10 different monoclonal antibodies and a polyclonal preparation (Table 1).
(§2) For each target antibody/library combination, a separate well of a 96-well Immulon 4 flat-bottomed ELISA plate (Thermo Labsystems) was coated with 5 μg of antibody in 150 μl ELISA coating buffer (15 mM Na2CO3, 35 mM NaHCO3, pH9.6). Plates were sealed and incubated at 4° C. overnight. Unbound antibody was discarded and 350 μl of blocking buffer (0.1M NaHCO3/3% skimmed milk powder) was added to each well. Plates were sealed and incubated for 1 hour at 4° C. The blocking buffer was removed and the wells were washed six times with 300 μl TBS/0.1% Tween 20. Approximately 2×10^11 plaque forming units (pfu) in 100 μl TBS/0.1% Tween 20 were added to each well and the plates were incubated at room temperature for 1 hour. Wells were washed ten times with 300 μl TBS/0.1% Tween 20. Bound phage were eluted by incubation with 100 μl of 0.2M glycine-HCl/BSA, pH2.2 (1 mg/ml) for 10 minutes, then neutralised with 15 μl of 1M Tris-HCL (pH9.1). An aliquot of the Round 1 eluate was removed and titred. The remainder of the eluted phage were amplified by infection of E. coli ER2538 cells for 4.5 hours at 37° C. The cultures were centrifuged for 10 minutes at 10,000 rpm at 4° C. The supernatants were recovered, ⅙ volume PEG/NaCl (20% polyethylene glycol 8000; 2.5M NaCl) added, then incubated overnight at 4° C. The PEG-precipitated phage were centrifuged at 10,000 rpm for 15 minutes at 4° C. The supernatant was removed and the phage pellet resuspended in 200 μl TBS. Two further rounds of panning were undertaken and approximately 2×10^11 pfu of the Round 2 or Round 3 amplified eluates were used as input phage. Round 3 eluates were titrated but not amplified. Individual plaques were amplified and subjected to PCR amplification, prior to DNA sequence analysis. The specificity of peptide-antibody binding was subsequently determined using both phage ELISA and SPOTs techniques.

[2] = tested on: polyclonal anti-RhD preparation (Human Anti-D Ig); test: SPOTs membrane hybridisation with polyclonal anti-RhD; assay type: binding; settings: FIG. 8; Spots 1-25 = RhD81-105; Spots 26-28 = RhD68, RhD71, RhD79; Spot 29 CPep75 and Spot 30 CPep76 negative controls
Experimental: (§3) The peptide mimotopes were synthesised by the SPOT method (Frank; 1992) using F-moc chemistry. The peptides were anchored to an amino-PEG derivatised cellulose membrane (Intavis AG) and synthesised as discrete spots. Synthesis was by stepwise elongation of the peptide chain from C-terminus to the N-terminus, by manual pipetting of the respective amino acids, according to the Sigma Genosys protocol. Incubation times were modified when using Intavis AG membranes. After addition of the final amino acid, the terminal residues and side chains of the peptides were deprotected and the membrane was washed with methanol; air dried and then stored at −20° C. prior to use.
A membrane was placed in a 50 ml Falcon tube and blocked overnight at 4° C. with gentle agitation in TBS/0.25% Tween 20/5% skimmed milk powder. A 2 μg/ml dilution of the primary (1°) antibody (monoclonal or polyclonal) was prepared in TBS/0.25% Tween20/5% skimmed milk powder before incubation with the membrane for 1 hour at room temperature on a spiral rotor. Following 4 washes, each for 5 minutes with 20 ml of TBS/0.25% Tween20, the membrane was incubated for 1 hour at room temperature with a 1/5000 dilution of the secondary (2°) antibody, prepared in TBS/0.25% Tween20/5% skimmed milk powder. Peroxidase labelled rabbit anti-mouse IgG (Sigma) was used for the detection of the murine anti-Fy^a (LM487) and anti-Fy^b (LM447) 1° antibodies and peroxidase labelled goat anti-human IgG (Pharmacia) for the detection of the human 1° antibodies. Following 4 washes, each for 5 minutes with 20 ml of TBS/0.25% Tween20, the membrane was blotted to remove excess fluid. Bound antibody was detected by chemiluminescence. ECL detection reagents (Amersham Biosciences) were mixed and overlaid on the membrane for 2 minutes. The chemiluminescent substrate was removed and the membrane blotted to remove excess fluid. Positive spots were visualised following exposure to Hyperfilm ECL (Amersham Biosciences) for a series of short incubation times (5 seconds to 10 minutes). […]

[3] = tested on: anti-RhE monoclonal antibody E0002; test: SPOTs membrane hybridisation with anti-RhE monoclonal E0002; assay type: binding, Human; settings: FIG. 9; 36 RhE peptide mimotopes; CPep75 (Spot 37), CPep76 (Spot 38) negative controls
Experimental: as §3
A membrane was placed in a 50 ml Falcon tube and blocked overnight at 4° C. with gentle agitation in TBS/0.25% Tween 20/5% skimmed milk powder. A 2 μg/ml dilution of the primary (1°) antibody (monoclonal or polyclonal) was prepared in TBS/0.25% Tween20/5% skimmed milk powder before incubation with the membrane for 1 hour at room temperature on a spiral rotor. Following 4 washes, each for 5 minutes with 20 ml of TBS/0.25% Tween20, the membrane was incubated for 1 hour at room temperature with a 1/5000 dilution of the secondary (2°) antibody, prepared in TBS/0.25% Tween20/5% skimmed milk powder. Peroxidase labelled rabbit anti-mouse IgG (Sigma) was used for the detection of the murine anti-Fy^a (LM487) and anti-Fy^b (LM447) 1° antibodies and peroxidase labelled goat anti-human IgG (Pharmacia) for the detection of the human 1° antibodies. Following 4 washes, each for 5 minutes with 20 ml of TBS/0.25% Tween20, the membrane was blotted to remove excess fluid. Bound antibody was detected by chemiluminescence. ECL detection reagents (Amersham Biosciences) were mixed and overlaid on the membrane for 2 minutes. The chemiluminescent substrate was removed and the membrane blotted to remove excess fluid. Positive spots were visualised following exposure to Hyperfilm ECL (Amersham Biosciences) for a series of short incubation times (5 seconds to 10 minutes).
The RhD, RhE and Rhe peptide mimotopes (see Tables 4 & 5) were synthesised by SPOTs and hybridisation of the membranes was undertaken with the appropriate antibodies (Table 1). FIGS. 7-10 show examples of peptide mimotopes reacting specifically with the antibody originally used in their selection.

[4] = tested on: anti-RhE monoclonal antibody E0002 (NaTH110-1D6); test: Biopanning of phage-peptide libraries with anti-RhE E0002; assay type: binding, Human; settings: IgM antibody
Description: as §1
as §2, with “Two further rounds of panning were undertaken and approximately 2×10^11 pfu of the Round 2 or Round 3 amplified eluates were used as input phage. Round 3 eluates were titrated but not amplified. Individual plaques were amplified and subjected to PCR amplification, prior to DNA sequence analysis.” left out

[5] = tested on: anti-RhE monoclonal antibody E0003 (NaTH110-IH4); test: Biopanning of phage-peptide libraries with anti-RhE E0003; assay type: binding, Human; settings: IgM antibody
Description: as §1
(§4) For each target antibody/library combination, a separate well of a 96-well Immulon 4 flat-bottomed ELISA plate (Thermo Labsystems) was coated with 5 μg of antibody in 150 μl ELISA coating buffer (15 mM Na2CO3, 35 mM NaHCO3, pH9.6). Plates were sealed and incubated at 4° C. overnight. Unbound antibody was discarded and 350 μl of blocking buffer (0.1M NaHCO3/3% skimmed milk powder) was added to each well. Plates were sealed and incubated for 1 hour at 4° C. The blocking buffer was removed and the wells were washed six times with 300 μl TBS/0.1% Tween 20. Approximately 2×10^11 plaque forming units (pfu) in 100 μl TBS/0.1% Tween 20 were added to each well and the plates were incubated at room temperature for 1 hour. Wells were washed ten times with 300 μl TBS/0.1% Tween 20. […] The specificity of peptide-antibody binding was subsequently determined using both phage ELISA and SPOTs techniques.

[6] = tested on: anti-RhE monoclonal antibody E0001 (HIRO17); test: Biopanning of phage-peptide libraries with anti-RhE E0001; assay type: binding, Human; settings: IgG1 antibody
Description: as §1, §4

Substance	Selection by biopanning with anti-RhD monoclonal antibody T10 [1]	SPOTs recognition by polyclonal anti-RhD [2]	SPOTs binding of anti-RhE monoclonal antibody E0002 [3]	Selection by biopanning with anti-RhE antibody E0002 [4]	Selection by biopanning with anti-RhE antibody E0003 [5]	Selection by biopanning with anti-RhE antibody E0001 [6]
RhD68: RhD peptide mimotope, Table 4 (LDTYWYREHFRR)	identified through biopanning	recognised				
RhD71: RhD peptide mimotope, Table 4 (VPWFRAP)	identified through biopanning	recognised				
RhD79: RhD peptide mimotope, Table 4 (LPWYRH)	identified through biopanning	recognised				
RhE18: RhE peptide mimotope, Table 5 (IPEEALRARFKT)			Specific binding	selected	selected	
RhE19: RhE peptide mimotope, Table 5 (SFQDALLSRWYS)			Specific binding	selected		selected
RhE24: RhE peptide mimotope, Table 5 (GPSYYALITRYLGAA)			Specific binding	selected	selected	
